# According to patent publication US12077503B2, “Substituted cyclic amides and their use as herbicides” (FMC CORPORATION, priority 2015, dated 2024):
# How the values were obtained:
# Format in all cases: in vivo
# Kochia (Kochia scoparia) [1] = assay: Test A preemergence; settings: Bassia scoparia, pre-emergence, 240 h, 0 to 100 scale where 0 is no effect and 100 is complete control, read-out: Kochia plant response rating
# Outline: (§1)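 Visual injury scores from 0, no effect, to 100, complete control, were assigned versus untreated controls roughly 10 d after treatment in the greenhouse. Test chemicals, formulated with surfactant in a non-phytotoxic solvent, were applied to planted seeds as a preemergence soil spray or postemergence to one- to two-leaf plants 2 to 10 cm tall, in loam–sand soil.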
# [2] = tested on: barnyardgrass (Echinochloa crus-galli); assay: Test A preemergence; settings: Echinochloa crus-galli, pre-emergence, 240 h, 0 to 100 scale where 0 is no effect and 100 is complete control, read-out: Barnyardgrass plant response rating
# Outline: as §1
# [3] = tested on: giant foxtail (Setaria faberii); assay: Test A preemergence; settings: Setaria faberi, pre-emergence, 240 h, 0 to 100 scale where 0 is no effect and 100 is complete control, read-out: Foxtail, Giant plant response rating
# Outline: as §1
# [4] = tested on: pigweed (Amaranthus retroflexus); assay: Test A preemergence; settings: Amaranthus retroflexus, pre-emergence, 240 h, 0 to 100 scale where 0 is no effect and 100 is complete control, read-out: Pigweed plant response rating
# [5] = tested on: ragweed (common ragweed, Ambrosia elatior); assay: Test A preemergence; settings: Ambrosia artemisiifolia, pre-emergence, 240 h, 0 to 100 scale where 0 is no effect and 100 is complete control, read-out: Ragweed plant response rating
# Outline: as §1
# [6] = tested on: ryegrass, Italian (Italian ryegrass, Lolium multiflorum); assay: Test A preemergence; settings: Lolium multiflorum, pre-emergence, 240 h, 0 to 100 scale where 0 is no effect and 100 is complete control, read-out: Ryegrass, Italian plant response rating
# Outline: as §1
# [7] = tested on: Galium (catchweed bedstraw, Galium aparine); assay: Test A postemergence; settings: Galium, post-emergence, 240 h
# Outline: as §1
# Kochia (Kochia scoparia) [8] = assay: Test A postemergence; settings: Bassia scoparia, post-emergence, 240 h
# Outline: as §1
# [9] = tested on: barnyardgrass (Echinochloa crus-galli); assay: Test A postemergence; settings: Echinochloa crus-galli, post-emergence, 240 h
# Outline: as §1
# [10] = tested on: blackgrass (Alopecurus myosuroides); assay: Test A postemergence; settings: Alopecurus myosuroides, post-emergence, 240 h
# Outline: as §1
# corn (Zea mays) = assay: Test A postemergence; settings: Zea mays, post-emergence, 240 h
# Outline: as §1
# [11] = tested on: giant foxtail (Setaria faberii); assay: Test A postemergence; settings: Setaria faberi, post-emergence, 240 h
# Outline: as §1
# [12] = tested on: pigweed (Amaranthus retroflexus); assay: Test A postemergence; settings: Amaranthus retroflexus, post-emergence, 240 h
# Outline: as §1
# [13] = tested on: ragweed (common ragweed, Ambrosia elatior); assay: Test A postemergence; settings: Ambrosia artemisiifolia, post-emergence, 240 h
# Outline: as §1
# [14] = tested on: ryegrass, Italian (Italian ryegrass, Lolium multiflorum); assay: Test A postemergence; settings: Lolium multiflorum, post-emergence, 240 h
# Outline: as §1
# [15] = tested on: wheat (Triticum aestivum); assay: Test A postemergence; settings: Triticum aestivum, post-emergence, 240 h
# Outline: as §1
# [16] = tested on: barnyardgrass (Echinochloa crus-galli); assay: Test B flooded paddy test; settings: Echinochloa crus-galli, 250 g ai/ha, Flood; 0 to 100 scale where 0 is no effect and 100 is complete control; read-out: Barnyardgrass plant response rating
# Outline: (§2)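 Rating scale 0–100 (visual, vs untreated controls) after a 13–15 d greenhouse period; application to the flood layer, 3 cm above soil and maintained; plants at 2-leaf stage when treated.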
# [17] = tested on: ducksalad (Heteranthera limosa); assay: Test B flooded paddy test; settings: Heteranthera limosa, 250 g ai/ha, Flood; 0 to 100 scale where 0 is no effect and 100 is complete control; read-out: Ducksalad plant response rating
# Outline: as §2
# rice (Oryra sativa) = assay: Test B flooded paddy test; settings: Oryza sativa, 250 g ai/ha, Flood; 0 to 100 scale where 0 is no effect and 100 is complete control; read-out: Rice plant response rating
# Outline: as §2
# [18] = tested on: sedge, umbrella (small-flower umbrella sedge, Cyperus difformis); assay: Test B flooded paddy test; settings: Cyperus difformis, 250 g ai/ha, Flood; 0 to 100 scale where 0 is no effect and 100 is complete control; read-out: Sedge, Umbrella plant response rating
# Outline: as §2
# [19] = 125 g ai/ha, preemergence, approx. 10 d
compound,measurement,setting,value
CC(O)c1ccccc1NC(=O)C1C(=O)N(C)CC1c1cccc(C(F)(F)F)c1 (stereo not drawn) [Compound 1147],pest or weed control at 31 g/ha,"Kochia (Kochia scoparia) [1]; 31 g ai/ha, Preemergence",0%
same,pest or weed control at 125 g/ha,Kochia (Kochia scoparia) [1]; [19],0%
same,pest or weed control at 31 g/ha,"[2]; 31 g ai/ha, Preemergence",0%
same,pest or weed control at 125 g/ha,[2]; [19],20%
same,pest or weed control at 31 g/ha,"[3]; 31 g ai/ha, Preemergence",0%
same,pest or weed control at 125 g/ha,[3]; [19],20%
same,pest or weed control at 31 g/ha,"[4]; 31 g ai/ha, Preemergence",0%
same,pest or weed control at 125 g/ha,[4]; [19],0%
same,pest or weed control at 31 g/ha,"[5]; 31 g ai/ha, Preemergence",0%
same,pest or weed control at 125 g/ha,[5]; [19],0%
same,pest or weed control at 31 g/ha,"[6]; 31 g ai/ha, Preemergence",0%
same,pest or weed control at 125 g/ha,[6]; [19],0%
same,pest or weed control at 125 g/ha,"[7]; 125 g ai/ha, postemergence, visual injury on 0 to 100 scale (0 no effect, 100 complete control), approx. 10 d, read-out: Galium plant response rating",0%
same,pest or weed control at 31 g/ha,"[7]; Postemergence, 31 g ai/ha, visual injury after approx. 10 d, 0 to 100 scale, 0 no effect, 100 complete control, read-out: Plant response rating, Galium",0%
same,pest or weed control at 125 g/ha,"Kochia (Kochia scoparia) [8]; 125 g ai/ha, postemergence, visual injury on 0 to 100 scale (0 no effect, 100 complete control), approx. 10 d, read-out: Kochia plant response rating",0%
same,pest or weed control at 31 g/ha,"Kochia (Kochia scoparia) [8]; Postemergence, 31 g ai/ha, visual injury after approx. 10 d, 0 to 100 scale, 0 no effect, 100 complete control, read-out: Plant response rating, Kochia",0%
same,pest or weed control at 125 g/ha,"[9]; 125 g ai/ha, postemergence, visual injury on 0 to 100 scale (0 no effect, 100 complete control), approx. 10 d, read-out: Barnyardgrass plant response rating",0%
same,pest or weed control at 31 g/ha,"[9]; Postemergence, 31 g ai/ha, visual injury after approx. 10 d, 0 to 100 scale, 0 no effect, 100 complete control, read-out: Plant response rating, Barnyardgrass",0%
same,pest or weed control at 125 g/ha,"[10]; 125 g ai/ha, postemergence, visual injury on 0 to 100 scale (0 no effect, 100 complete control), approx. 10 d, read-out: Blackgrass plant response rating",0%
same,pest or weed control at 31 g/ha,"[10]; Postemergence, 31 g ai/ha, visual injury after approx. 10 d, 0 to 100 scale, 0 no effect, 100 complete control, read-out: Plant response rating, Blackgrass",0%
same,plant injury at 125 g/ha,"corn (Zea mays); 125 g ai/ha, postemergence, visual injury on 0 to 100 scale (0 no effect, 100 complete control), approx. 10 d, read-out: Corn plant response rating",0%
same,"Corn plant response rating (crop injury, 0 = no effect, 100 = complete kill) at 31 g/ha","corn (Zea mays); Postemergence, 31 g ai/ha, visual injury after approx. 10 d, 0 to 100 scale, 0 no effect, 100 complete control",0%
same,pest or weed control at 125 g/ha,"[11]; 125 g ai/ha, postemergence, visual injury on 0 to 100 scale (0 no effect, 100 complete control), approx. 10 d, read-out: Foxtail, Giant plant response rating",0%
same,pest or weed control at 31 g/ha,"[11]; Postemergence, 31 g ai/ha, visual injury after approx. 10 d, 0 to 100 scale, 0 no effect, 100 complete control, read-out: Plant response rating, Foxtail, Giant",0%
same,pest or weed control at 125 g/ha,"[12]; 125 g ai/ha, postemergence, visual injury vs untreated controls after approx. 10 d, 0 = no effect, 100 = complete control, read-out: Pigweed plant response rating (0 to 100 scale)",0%
same,pest or weed control at 31 g/ha,"[12]; Postemergence, 31 g ai/ha, visual injury after approx. 10 d, 0 to 100 scale, 0 no effect, 100 complete control, read-out: Plant response rating, Pigweed",0%
same,pest or weed control at 125 g/ha,"[13]; 125 g ai/ha, postemergence, visual injury vs untreated controls after approx. 10 d, 0 = no effect, 100 = complete control, read-out: Ragweed plant response rating (0 to 100 scale)",0%
same,pest or weed control at 31 g/ha,"[13]; Postemergence, 31 g ai/ha, visual injury after approx. 10 d, 0 to 100 scale, 0 no effect, 100 complete control, read-out: Plant response rating, Ragweed",0%
same,pest or weed control at 125 g/ha,"[14]; 125 g ai/ha, postemergence, visual injury vs untreated controls after approx. 10 d, 0 = no effect, 100 = complete control, read-out: Ryegrass, Italian plant response rating (0 to 100 scale)",0%
same,pest or weed control at 31 g/ha,"[14]; Postemergence, 31 g ai/ha, visual injury after approx. 10 d, 0 to 100 scale, 0 no effect, 100 complete control, read-out: Plant response rating, Ryegrass, Italian",0%
same,plant injury at 125 g/ha,"[15]; 125 g ai/ha, postemergence, visual injury vs untreated controls after approx. 10 d, 0 = no effect, 100 = complete control, read-out: Wheat plant response rating (0 to 100 scale)",0%
same,plant injury at 31 g/ha,"[15]; Postemergence, 31 g ai/ha, visual injury after approx. 10 d, 0 to 100 scale, 0 no effect, 100 complete control, read-out: Plant response rating, Wheat",0%
same,pest or weed control at 250 g/ha,[16],0%
same,pest or weed control at 250 g/ha,[17],0%
same,pest or weed control at 250 g/ha,rice (Oryra sativa),15%
same,pest or weed control at 250 g/ha,[18],0%
